Reference: patent US4370331A, “L-Glaucine containing composition for cough relief” (Karl O. Helm Aktiengesellschaft, priority 1977, dated 1983)
“And” between values parts separate entries of the source, which are not always exact repeats. Equal entries are not always repeated. Structures can show the parent of a compound that is named as a salt. Where two headings read alike, the source gives them in different places.

Columns and labels:
mice = assay: Toxicity (LD50) in mice by the Wilcox method, Comparative test 7; format: in vivo
Method: (§1) The toxicity thresholds of codeine phosphate, of d-glaucine hydrobromide and of d,l-glaucine hydrobromide were determined in mice by the Wilcox method. […] The toxicities of codeine phosphate and d,l-glaucine hydrobromide are about equal.

[1] = test system: isolated guinea pig intestine (spasms induced by carbachol); assay: Suppression of spasms induced by carbachol in isolated guinea pig intestine; conditions: Cavia porcellus, read-out: concentration effective against carbachol induced spasms
Description: In further tests it was investigated in what concentrations the active substances being compared suppress spasms induced in isolated guinea pig intestine by carbachol or histamine. […] On the other hand d,l-glaucine was effective against histamine at molar concentrations of only 4×10^-8 to 4×10^-6 and against carbachol at molar concentrations of only 4×10^-7.

anti-cough effectiveness = assay: Oral anti-cough effectiveness in guinea pigs, 5% acid aerosol, Comparative test 8; format: in vivo; conditions: 1 h before 10 min exposure to 5% acid aerosol, last 5 minutes measured
cough pulses [2] = assay: Oral citric acid aerosol cough test in guinea pigs, time course 1-24 h, Comparative test 6; format: in vivo; conditions: codeine phosphate 75, d,l-glaucine hydrobromide 150, hydrochloride 135, embonate 378 mg/kg
Method: In a further comparative test, 40 female guinea pigs with body weights between 230 and 500 g were divided into 4 groups and each animal was again subjected to the action of a 20% citric acid aerosol for 8 minutes. From the control values thus obtained the average control value for each group was calculated. Each animal of each group was then given, by means of a throat probe, either 75 mg/kg of codeine phosphate, or 135 mg/kg of d,l-glaucine hydrochloride, or 150 mg/kg of d,1-glaucine hydrobromide, or 378 mg/kg of d,l-glaucine embonate. These doses are the equimolar quantities, based on glaucine. After a period of 1, or 3, or 5, or 24 hours each animal was again subjected for 8 minutes to the action of the citric acid aerosol, and the number of cough pulses during this period was recorded. The values thus obtained were compared with the control values and the percent deviation of the average measured value for each group, from the average control value, was calculated.

[3] = Toxicity (LD50) in mice by the Wilcox method, Comparative test 7; format: in vivo; conditions: mouse, in vivo
Method: as §1

coughing centre = assay: Coughing reflex by electrical stimulation of upper laryngeal nerves of anaesthetized cats (method of Domenjoz), Comparative test 5; format: in vivo; conditions: intravenous, anaesthetized cats
Method: In a series of tests conducted by the method of Domenjoz, the effects of the different active substances on the coughing centre was examined by electrical stimulation of the upper laryngeal nerves of anaesthetized cats. Electrical stimulation of the nerve produces a coughing reflex and the intention is to reduce this by intravenous injection of the active substance. The minimal effective dose MED is determined by increasing the dose from 0.1 mg/kg of body weight up to 0.3 mg/kg, 1.0 mg/kg, 3.0 mg/kg and 6.0 mg/kg, until the dose is sufficient for completely suppressing the coughing reflex.
In these tests each animal was given, on the one hand, codeine and, on the other hand, at sufficient time intervals also glaucine, so that the ratio of the minimal effective doses of glaucine and codeine can be deduced.

cough pulses [4] = assay: Citric acid aerosol cough test in guinea pigs, subcutaneous, 30 min (method of Friebel and Reichle), Comparative test 1; format: in vivo; conditions: s.c.; for ED50: Cavia porcellus, sc, 0.5 h, 30 min after administering, 20% citric acid aerosol, 8 min
Method: In order to compare the anti-cough effectiveness of codeine phosphate with the effectiveness of the different isomers of glaucine hydrobromide, the testing method of Friebel and Reichle was used. 60 guinea pigs with weights between 200 and 300 g were divided up into ten groups of different sizes. Before administering the active substance, each animal was subjected, on the same day as the day of test with the active substance, for a period of 8 minutes to an aerosol of 20% citric acid, the animal being confined in a chamber at constant air pressure. During this control test the number of cough pulses was counted with the help of a pressure transmitter. From these measurements an average control value for each group was calculated. After this preliminary control test, there was given subcutaneously to each animal of each group a suspension of the active substance in 1% sodium carboxymethyl cellulose. After 30 minutes each animal was again exposed in the test chamber for 8 minutes to the aerosol of 20% citric acid and the number of cough pressure pulses recorded. The different active substances were administered in increasing doses ranging from 3 mg/kg to 100 mg/kg of body weight. Altogether eight different doses were given. The results were expressed as percent deviation from the average control value for the group on the same day, the deviation being entered in a diagram against the logarithm of the dose administered. From the resulting effectiveness curve, based on the logarithm of the dose, the coefficient of correlation and the ED50 were calculated for each active substance, by the regression analysis method of Downie and Heath (1965). The values obtained for codeine phosphate, for d-glaucine hydrobromide, for d,l-glaucine hydrobromide and for l-glaucine hydrobromide thirty minutes after administering the active substance are summarized in Table I.

[5] = test system: isolated guinea pig intestines (contractions induced by electric voltages); assay: Suppression of electrically induced contractions in isolated guinea pig intestines, Comparative test 4; design: electrically induced contractions (Table III): unit not given here
Method: In a further series of tests the effects of different doses of codeine phosphate in suppressing contractions induced in isolated guinea pig intestines by electric voltages were tested. For this purpose one electrode was immersed in the solution surrounding the intestinal preparation. The second electrode was connected to the preparation at the attachment point.

cough pulses [6] = assay: Oral citric acid aerosol cough test in guinea pigs, 1 h (equivalent effective doses), Comparative test 6; format: in vivo; conditions: for Cough pulses percent of control value: 20% citric acid aerosol 8 min
[7] = test system: isolated guinea pig intestines (contractions induced by electric voltages); assay: Suppression of electrically induced contractions in isolated guinea pig intestines, Comparative test 4; conditions: isolated guinea pig intestine; codeine: increased doses; d-glaucine: higher concentrations than 4×10^-5; d,l-glaucine: 4×10^-5 to 6×10^-5
intestinal motility = assay: Intestinal motility / evacuation action of stomach-intestinal tract of mice (carbon suspension), Comparative test 2; format: in vivo; conditions: s.c.; for Distance travelled average % (of intestine length): 2 h, control 74.3%, * = significantly different from control (p < 0.05)
Description: One of the most unpleasant side effects of anti-cough medicine containing codeine is constipation and the occurrence of intestinal spasms. A model test for determining the effects of anti-cough active substances on intestinal motility and on the evacuation action of the stomach-intestinaltract of mice was therefore made. After subcutaneous injection of the active substance, each animal was given, through a throat probe, a 10% suspension of carbon in a 5% aqueous slurry of gum arabic. Two hours later the intestine was sectioned and the distance of stomach coecum measured, and also the distance travelled by the carbon, which was expressed as percent of intestine length.
The effects of codeine phosphate, of d-glaucine hydrobromide and of l-glaucine hydrobromide on intestinal motility were determined at different doses. For each dose the average value was calculated for a sufficient number of animals.

For `COc1cc2c(cc1OC)-c1c(OC)c(OC)cc3c1C(C2)N(C)CC3` (racemic) [d,l-glaucine], the “toxicity, comparison in words” value (mice) was “considerably less toxic than d-glaucine” and the minimal effective concentration [1] was 0.4 µM.

In the case of `COc1cc2c(cc1OC)-c1c(OC)c(OC)cc3c1[C@@H](C2)N(C)CC3` [1-glaucine-d-tartrate, l-glaucine-d-tartrate], the “Oral ED50” value (anti-cough effectiveness; 60 min) was 6,8 mg/kg.

For `COc1ccc2c3c1O[C@H]1[C@@H](O)C=C[C@H]4[C@@H](C2)N(C)CC[C@@]341` [codeine phosphate, reference compound], the “Cough pulses during 8 minutes, percent of control value, after 1 h” value (cough pulses [2]; 1 h) was 84%, the “Cough pulses during 8 minutes, percent of control value, after 3 h” value (cough pulses [2]; 3 h) was 70% and the “Cough pulses during 8 minutes, percent of control value, after 5 h” value (cough pulses [2]; 5 h) was 84%. For the same molecule, the “Cough pulses during 8 minutes, percent of control value, after 24 h” value (cough pulses [2]; 24 h) was 95%, the “toxicity, comparison in words” value (mice) was “about equal” and the LD50 ([3]; po, peroral, read-out: LD50 peroral) was 640 mg/kg. The LD50 ([3]; sc, subcutaneous, read-out: LD50 subcutaneous) was 230 mg/kg, the minimal effective dose (coughing centre; Felis catus, read-out: MED (minimal effective dose completely suppressing the coughing reflex)) was 6 mg/kg and the “Duration of cough suppression” value (coughing centre; at MED) was 18 to 54 min. The ED50 (cough pulses [4]) was 20.6 mg/kg, the inhibition at 10 µM ([5]; Cavia porcellus, molar concentration of about 10^-5, read-out: suppression of electrically induced contraction reflexes) was ~50% and the “electrically induced contractions (Table III)” value ([5]; molar concentration 1 × 10^-5) was 49. For the same molecule, the “electrically induced contractions (Table III)” value ([5]; molar concentration 2 × 10^-5) was 36 and 52, the “electrically induced contractions (Table III)” value ([5]; molar concentration 4 × 10^-5) was 58 and the “electrically induced contractions (Table III)” value ([5]; molar concentration 5 × 10^-6) was 85 and 51. The “Cough pulses percent of control value” (cough pulses [6]; 50 mg/kg) was 37%, the “Cough pulses percent of control value” (cough pulses [6]; 100 mg/kg) was 50% and the “dose having about the same effect (codeine phosphate vs d,l-glaucine hydrobromide)” value (cough pulses [6]; guinea pigs) was ~75 mg per kg of body weight. The “induced spontaneous activity, in words” value [7] was “the spontaneous activity induced by the codeine phosphate itself increases the contractions”, the “Distance travelled average % (of intestine length)” value (“Distance travelled average %” below) (intestinal motility; 3 mg/kg) was 70.4% and the “Distance travelled average %” value (intestinal motility; 10 mg/kg) was 74.3%. The “Distance travelled average %” value (intestinal motility; 30 mg/kg) was 34.8% and the “Distance travelled average %” value (intestinal motility; 100 mg/kg) was 20.6%.

In the case of `COc1cc2c(cc1OC)-c1c(OC)c(OC)cc3c1[C@@H](C2)N(C)CC3` [l-glaucine hydrobromide], the ED50 (cough pulses [4]) was 31.2 mg/kg, the “ED50 value, comparison in words” value (cough pulses [4]; 30 min) was “considerably lower effective dose ED50 value compared to d-glaucine hydrobromide” and the ED50 (anti-cough effectiveness; Cavia porcellus, po, 1 h) was 7.21 mg/kg. For the same molecule, the “suppression of electrically induced contraction reflexes, in words” value ([5]; 4×10^-5) was “more effectively suppressed, compared to what is obtained using d-glaucine hydrobomide”, the “suppression of electrically induced contractions, in words” value ([5]; 8×10^-5) was “suppressed even more effectively” and the “electrically induced contractions (Table III)” value ([5]; molar concentration 1 × 10^-5, hydrobromide) was 71 and 74. The “electrically induced contractions (Table III)” value ([5]; molar concentration 2 × 10^-5, hydrobromide) was 64 and 32, the “electrically induced contractions (Table III)” value ([5]; molar concentration 4 × 10^-5, hydrobromide) was 24 and 23 and the “electrically induced contractions (Table III)” value ([5]; molar concentration 8 × 10^-5) was 7. For the same molecule, the “Distance travelled average %” value (intestinal motility; 3 mg/kg) was 74.3%, the “intestinal activity, in words” value (intestinal motility; 10 mg/kg) was “significant increase in intestinal activity” and the “Distance travelled average %” value (intestinal motility; 10 mg/kg) was 94.3%. For the same molecule, the “intestinal motility, in words” value (intestinal motility; 30 mg/kg and 100 mg/kg) was “considerably more than the corresponding values for d-glaucine hydrobromide and codeine phosphate”, the “Distance travelled average %” value (intestinal motility; 30 mg/kg) was 85.4% and the “Distance travelled average %” value (intestinal motility; 100 mg/kg) was 51.8%.
